Laboratory results: ChEMBL document CHEMBL1156551, “Chlorohydroaspyrones A and B, antibacterial aspyrone derivatives from the marine-derived fungus Exophiala sp” (2008)
Converted amounts (≈) assume the structure as drawn.

How the values were obtained:
Type in all cases: functional
[1] = test system: Staphylococcus aureus; test: Antibacterial activity against Staphylococcus aureus after 18 hrs by conventional 2 fold serial dilution method
[2] = test system: Staphylococcus aureus; test: Antibacterial activity against methicillin-resistant Staphylococcus aureus after 18 hrs by conventional 2 fold serial dilution method
[3] = test system: Staphylococcus aureus; test: Antibacterial activity against multidrug-resistant Staphylococcus aureus after 18 hrs by conventional 2 fold serial dilution method

## C[C@H](O)[C@H](Cl)C1=C[C@H](O)[C@@H](C)OC1=O [CHLOROHYDROASPYRONE A]
[1]
  MIC: 62.5 µg/mL (≈ 283 µM)
[2]
  MIC: 125 µg/mL (≈ 567 µM)
[3]
  MIC: 125 µg/mL (≈ 567 µM)

## C[C@H](Cl)[C@@H](O)C1=C[C@H](O)[C@@H](C)OC1=O [CHLOROHYDROASPYRONE B]
[1]
  MIC: 62.5 µg/mL (≈ 283 µM)
[2]
  MIC: 62.5 µg/mL (≈ 283 µM)
[3]
  MIC: 125 µg/mL (≈ 567 µM)
